Data taken from article PMC11861906, “Structural basis for lipid-mediated activation of G protein-coupled receptor GPR55” (Nature Communications, 2025).

Target: GPR55 mutant N171A (Gα13) (Homo sapiens, UniProt Q9Y2T6, N171A)
Assay: BRET² G protein dissociation assay, GPR55 N171A with Gα13
Assay type: cell-based
Excerpt: To validate the functionality of the GPR55 cryo-EM construct, we conducted bioluminescence resonance energy transfer 2 (BRET²)-based G protein dissociation assays[46],[47] using an engineered heterotrimeric G13 protein. The N-terminal GFP fusion of the receptor was additionally modified with a G67A mutation to disrupt fluorescence properties. We employed human embryonic kidney (HEK) cells overexpressing wt or mutant GPR55 together with Gβ3, Gγ9-GFP, and Gα13 tagged with Renilla luciferase 8 (Rluc8).
G protein dissociation assays were performed according to the original protocols of the TRUPATH BRET² assay[47],[87] but with subtle modifications as previously described[61],[88],[89]. All reagents and cells were obtained from Thermo Fisher Scientific unless indicated otherwise. The coding sequences for the G protein biosensors[47] (Gα12-Rluc8, Gα13-Rluc8, wt Gβ3, and Gγ9-GFP), the wt GPR55, the construct used for cryo-EM (with GFP bearing a G67A mutation to disrupt fluorescence properties[48] for BRET² assays), GPR55 binding pocket mutants (G152^4.56F, G152^4.56W, N171^ECL2Q, N171^ECL2A, T176^5.33A, R253^6.62A), and the wt TBXA2R were codon-optimized for Homo sapiens, gene-synthesized, and sub-cloned into pcDNA^TM3.1(+) between NheI and HindIII restriction sites by GeneArt (Thermo Fisher Scientific). […] Freshly grown cells were washed with Dulbecco’s Balanced Salt Solution (DPBS, cat. #14200075) and detached using trypsin-ethylenediaminetetraacetic acid (trypsin-EDTA) (cat. #25300-062). Then, the cells were reconstituted to 500,000 cells per mL with fresh medium, and 1,000,000 cells were seeded into each well of a 6-well plate. After 3 h incubation at 37 °C and 5% CO2, adherent cells were transfected with 600 ng DNA (1:1:1:1 ratio of plasmid DNA for GPR55, wt Gβ3, Gγ9-GFP, and Gα12-Rluc8 or Gα13-Rluc8). Plasmid DNA was mixed with 1.5 µL Lipofectamine^TM 2000 (cat. #11668027) in Opti-MEM^TM medium (cat. #31985062) and incubated for 20 min. Then, the mixture was added to each well of the 6-well plate following 24 h incubation at 37 °C and 5% CO2. Transfected cells were washed with DPBS, detached using EDTA (Versene, cat. #15040066), and reconstituted into fresh medium at 500,000 cells mL^−1. From this suspension, 50,000 cells were seeded into each well of a white-bottom 96-well plate (Nunc^TM MicroWell^TM 96 wells, cat. #136101) following overnight incubation at 37 °C and 5% CO2. Then, the adherent cells were washed with assay medium [Hank’s balanced salt solution (HBSS, cat. #14065056) plus 20 mM HEPES pH 7.4 (cat. #15630056)] and finally reconstituted into 50 µL of the same medium. […] Methoxy e-Coelenterazine was used as luciferase substrate (Prolume Purple, NanoLight Technology, cat. #369), reconstituted at 1 mM in methanol and diluted to 37.5 µM with assay buffer (7.5 µM final assay concentration). The assay was started by the addition of 20 µL luciferase substrate to each well of the assay plate using a Multidrop^TM Combi reagent dispenser (Thermo Fisher Scientific), followed by 5 min incubation at room temperature. Then, 30 µL of agonist dilutions or DMSO control was added (final DMSO concentration 1.5%), followed by an additional 5 min incubation at room temperature. BRET² measurements were performed with a PHERAstar® FSX microplate reader (BMG LABTECH) using a BRET² filter (donor emission 370–450 nm, acceptor emission 500–530 nm) at the maximum fluorescence gain of 3600. BRET² ratios were calculated by dividing GFP emission signals from Rluc8 emission counts. Buffer-DMSO controls were subtracted from each data point to calculate ΔBRET² ratios.

Sequence of GPR55 mutant N171A (Gα13) (Q9Y2T6 whole entry N171A): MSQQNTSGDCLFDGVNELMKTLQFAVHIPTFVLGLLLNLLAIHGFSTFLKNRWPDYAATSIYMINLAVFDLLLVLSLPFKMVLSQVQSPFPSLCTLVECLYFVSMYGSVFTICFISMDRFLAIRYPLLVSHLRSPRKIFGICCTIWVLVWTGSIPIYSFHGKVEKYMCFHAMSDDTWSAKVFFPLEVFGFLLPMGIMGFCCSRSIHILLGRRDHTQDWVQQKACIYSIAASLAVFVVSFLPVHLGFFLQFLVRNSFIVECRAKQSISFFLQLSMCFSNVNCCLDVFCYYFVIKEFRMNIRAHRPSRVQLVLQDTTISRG
Sequence of GPR55 mutant N171A (Gα13) (Q14344 whole entry partner): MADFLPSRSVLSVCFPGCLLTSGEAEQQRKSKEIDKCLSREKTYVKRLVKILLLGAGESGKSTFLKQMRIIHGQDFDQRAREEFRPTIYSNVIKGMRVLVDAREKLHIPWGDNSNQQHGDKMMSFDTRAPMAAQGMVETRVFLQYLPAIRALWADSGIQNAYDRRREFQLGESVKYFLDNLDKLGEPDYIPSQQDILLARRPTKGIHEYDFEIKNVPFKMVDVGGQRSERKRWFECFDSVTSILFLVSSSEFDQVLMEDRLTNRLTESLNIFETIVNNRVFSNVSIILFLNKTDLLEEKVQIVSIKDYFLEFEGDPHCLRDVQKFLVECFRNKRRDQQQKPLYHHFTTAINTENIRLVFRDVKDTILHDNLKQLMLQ
Sequence of GPR55 mutant N171A (Gα13) (P16520 whole entry partner): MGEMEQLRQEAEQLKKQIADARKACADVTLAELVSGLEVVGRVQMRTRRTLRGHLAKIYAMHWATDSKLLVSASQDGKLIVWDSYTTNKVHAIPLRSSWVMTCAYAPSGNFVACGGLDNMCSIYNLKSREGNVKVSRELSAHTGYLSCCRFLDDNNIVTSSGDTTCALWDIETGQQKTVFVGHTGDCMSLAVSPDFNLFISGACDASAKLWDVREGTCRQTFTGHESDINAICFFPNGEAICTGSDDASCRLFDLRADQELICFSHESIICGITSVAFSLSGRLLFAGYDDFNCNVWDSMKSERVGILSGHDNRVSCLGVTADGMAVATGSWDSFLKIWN
Sequence of GPR55 mutant N171A (Gα13) (O14610 1-66 partner limits assumed): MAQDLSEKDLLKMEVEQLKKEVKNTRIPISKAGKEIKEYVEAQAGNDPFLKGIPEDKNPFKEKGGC

SMILES | Mean (plotted) BRET² response, GPR55-N171A-G13 (Concentration 300 pM) | Mean (plotted) BRET² response, GPR55-N171A-G13 (Concentration 1e-9 M) | Mean (plotted) BRET² response, GPR55-N171A-G13 (Concentration 3e-9 M) | Mean (plotted) BRET² response, GPR55-N171A-G13 (Concentration 1e-8 M) | Mean (plotted) BRET² response, GPR55-N171A-G13 (Concentration 3e-8 M) | Mean (plotted) BRET² response, GPR55-N171A-G13 (Concentration 1e-7 M) | Mean (plotted) BRET² response, GPR55-N171A-G13 (Concentration 3e-7 M) | Mean (plotted) BRET² response, GPR55-N171A-G13 (Concentration 1e-6 M) | Mean (plotted) BRET² response, GPR55-N171A-G13 (Concentration 3e-6 M) | Mean (plotted) BRET² response, GPR55-N171A-G13 (Concentration 1e-5 M) | Mean (plotted) BRET² response, GPR55-N171A-G13 (Concentration 3e-5 M) | EC50 (GPR55 N171A, Gα13) [nM] | Emax at 30 µM (GPR55 N171A, Gα13, 30 µM ligand, same normalization, read-out: Efficacy ± SEM (%)) [%] | reduction of potency compared to wt GPR55 (N171A mutant) [fold] | Mean (plotted) BRET² response, GPR55-N171A-G13 (Concentration 10 pM) | Mean (plotted) BRET² response, GPR55-N171A-G13 (Concentration 30 pM) | Mean (plotted) BRET² response, GPR55-N171A-G13 (Concentration 100 pM)
Cc1cccc(N2CCN(C(=O)c3cc(S(=O)(=O)N(C)C)ccc3N3CCCC3)CC2)c1C [ML184, 3-[[4-(2,3-dimethylphenyl)-1-piperazinyl]carbonyl]-N,N-dimethyl-4-(1-pyrrolidinyl)benzenesulfonamide] | 0.002752 | 0.003846 | -0.0003036 | 0.001966 | -0.0002448 | -0.005366 | -0.01646 | -0.04126 | -0.05866 | -0.07333 | -0.07936 | 1050 | 73 ± 3 | 24 | – | – | –
CCCCC[C@H](O)/C=C/[C@@H]1[C@@H](C/C=C\CCCC(=O)O)[C@H]2CO[C@@H]1C2 [U-46619] | -0.003007 | 0.003546 | 0.00299 | -0.006252 | 0.007492 | 0.005274 | 0.006727 | 0.007007 | 0.002553 | -0.002868 | -0.004916 | – | – | – | 0.0067 | 0.0022 | 0.008
